{"source": "ChEMBL document CHEMBL3860082", "about": "“Effect of lysine methylation and acetylation on the RNA recognition and cellular uptake of Tat-derived peptides” (Bioorg Med Chem, 2016)", "key": {"[1]": {"assay": "Drug uptake in human Jurkat cells assessed as mean fluorescence intensity at 7 uM after 15 mins in presence of bovine serum by propidium iodide staining based FACS analysis", "format": "ADME, cell-based", "details": "0.25 h; call rule not given here"}, "[2]": {"assay": "Cytotoxicity against human Jurkat cells assessed as reduction in cell viability at 120 uM after 4 hrs by WST1 assay", "format": "toxicity, cell-based"}, "[3]": {"assay": "Drug uptake in human Jurkat cells assessed as mean fluorescence intensity at 120 uM after 15 mins in presence of bovine serum by propidium iodide staining based FACS analysis", "format": "ADME, cell-based", "details": "0.25 h"}, "[4]": {"assay": "Competitive binding affinity to fluorescein-labeled HIV TAR RNA in presence of Escherichia coli tRNA by electrophoretic mobility shift assay", "design": "species or system Human immunodeficiency virus", "details": "read-out: Kd(app)"}}, "data": [{"smiles": "N=C(N)NCCC[C@H](NC(=O)[C@H](CCCNC(=N)N)NC(=O)[C@H](CCCNC(=N)N)NC(=O)[C@H](CCC(N)=O)NC(=O)[C@H](CCCNC(=N)N)NC(=O)[C@H](CCCNC(=N)N)NC(=O)[C@H](CCCCN)NC(=O)[C@H](CCCCN)NC(=O)[C@H](CCCNC(=N)N)NC(=O)CNC(=O)[C@H](Cc1ccc(O)cc1)NC(=O)CCNC(=O)c1ccc2c(c1)C1(OC2=O)c2ccc(O)cc2Oc2cc(O)ccc21)C(N)=O", "values": [{"measurement": "Drug uptake", "setting": "[1]", "value": "Active"}, {"measurement": "Activity", "setting": "[2]", "value": "Non-Toxic"}, {"measurement": "Drug uptake", "setting": "[3]", "value": "Active"}]}, {"smiles": "C[N+](C)(C)CCCC[C@H](NC(=O)[C@H](CCCCN)NC(=O)[C@H](CCCNC(=N)N)NC(=O)CNC(=O)[C@H](Cc1ccc(O)cc1)NC(=O)CCNC(=O)c1ccc2c(c1)C1(OC2=O)c2ccc(O)cc2Oc2cc(O)ccc21)C(=O)N[C@@H](CCCNC(=N)N)C(=O)N[C@@H](CCCNC(=N)N)C(=O)N[C@@H](CCC(N)=O)C(=O)N[C@@H](CCCNC(=N)N)C(=O)N[C@@H](CCCNC(=N)N)C(=O)N[C@@H](CCCNC(=N)N)C(=O)O", "values": [{"measurement": "Activity", "setting": "[2]", "value": "Non-Toxic"}, {"measurement": "Drug uptake", "setting": "[3]", "value": "Active"}]}, {"smiles": "CC(=O)N[C@@H](Cc1ccc(O)cc1)C(=O)NCC(=O)N[C@@H](CCCNC(=N)N)C(=O)N[C@@H](CCCCN(C)C)C(=O)N[C@@H](CCCCN)C(=O)N[C@@H](CCCNC(=N)N)C(=O)N[C@@H](CCCNC(=N)N)C(=O)N[C@@H](CCC(N)=O)C(=O)N[C@@H](CCCNC(=N)N)C(=O)N[C@@H](CCCNC(=N)N)C(=O)N[C@@H](CCCNC(=N)N)C(N)=O", "values": [{"measurement": "Kd", "setting": "[4]", "value": 183, "unit": "nM"}]}, {"smiles": "CN(C)CCCC[C@H](NC(=O)[C@H](CCCNC(=N)N)NC(=O)CNC(=O)[C@H](Cc1ccc(O)cc1)NC(=O)CCNC(=O)c1ccc2c(c1)C1(OC2=O)c2ccc(O)cc2Oc2cc(O)ccc21)C(=O)N[C@@H](CCCCN)C(=O)N[C@@H](CCCNC(=N)N)C(=O)N[C@@H](CCCNC(=N)N)C(=O)N[C@@H](CCC(N)=O)C(=O)N[C@@H](CCCNC(=N)N)C(=O)N[C@@H](CCCNC(=N)N)C(=O)N[C@@H](CCCNC(=N)N)C(=O)O", "values": [{"measurement": "Drug uptake", "setting": "[1]", "value": "Active"}, {"measurement": "Activity", "setting": "[2]", "value": "Non-Toxic"}, {"measurement": "Drug uptake", "setting": "[3]", "value": "Active"}]}, {"smiles": "C[N+](C)(C)CCCC[C@H](NC(=O)[C@H](CCCNC(=N)N)NC(=O)CNC(=O)[C@H](Cc1ccc(O)cc1)NC(=O)CCNC(=O)c1ccc2c(c1)C1(OC2=O)c2ccc(O)cc2Oc2cc(O)ccc21)C(=O)N[C@@H](CCCCN)C(=O)N[C@@H](CCCNC(=N)N)C(=O)N[C@@H](CCCNC(=N)N)C(=O)N[C@@H](CCC(N)=O)C(=O)N[C@@H](CCCNC(=N)N)C(=O)N[C@@H](CCCNC(=N)N)C(=O)N[C@@H](CCCNC(=N)N)C(=O)O", "values": [{"measurement": "Drug uptake", "setting": "[1]", "value": "Active"}, {"measurement": "Activity", "setting": "[2]", "value": "Non-Toxic"}, {"measurement": "Drug uptake", "setting": "[3]", "value": "Active"}]}, {"smiles": "CC(=O)NCCCC[C@H](NC(=O)[C@H](CCCNC(=N)N)NC(=O)CNC(=O)[C@H](Cc1ccc(O)cc1)NC(C)=O)C(=O)N[C@@H](CCCCN)C(=O)N[C@@H](CCCNC(=N)N)C(=O)N[C@@H](CCCNC(=N)N)C(=O)N[C@@H](CCC(N)=O)C(=O)N[C@@H](CCCNC(=N)N)C(=O)N[C@@H](CCCNC(=N)N)C(=O)N[C@@H](CCCNC(=N)N)C(N)=O", "values": [{"measurement": "Kd", "setting": "[4]", "value": 437, "unit": "nM"}]}, {"smiles": "CC(=O)N[C@@H](Cc1ccc(O)cc1)C(=O)NCC(=O)N[C@@H](CCCNC(=N)N)C(=O)N[C@@H](CCCC[N+](C)(C)C)C(=O)N[C@@H](CCCCN)C(=O)N[C@@H](CCCNC(=N)N)C(=O)N[C@@H](CCCNC(=N)N)C(=O)N[C@@H](CCC(N)=O)C(=O)N[C@@H](CCCNC(=N)N)C(=O)N[C@@H](CCCNC(=N)N)C(=O)N[C@@H](CCCNC(=N)N)C(N)=O", "values": [{"measurement": "Kd", "setting": "[4]", "value": 168, "unit": "nM"}]}, {"smiles": "CNCCCC[C@H](NC(=O)[C@H](CCCCN)NC(=O)[C@H](CCCNC(=N)N)NC(=O)CNC(=O)[C@H](Cc1ccc(O)cc1)NC(=O)CCNC(=O)c1ccc2c(c1)C1(OC2=O)c2ccc(O)cc2Oc2cc(O)ccc21)C(=O)N[C@@H](CCCNC(=N)N)C(=O)N[C@@H](CCCNC(=N)N)C(=O)N[C@@H](CCC(N)=O)C(=O)N[C@@H](CCCNC(=N)N)C(=O)N[C@@H](CCCNC(=N)N)C(=O)N[C@@H](CCCNC(=N)N)C(=O)O", "values": [{"measurement": "Activity", "setting": "[2]", "value": "Non-Toxic"}]}, {"smiles": "CC(=O)NCCCC[C@H](NC(=O)[C@H](CCCCN)NC(=O)[C@H](CCCNC(=N)N)NC(=O)CNC(=O)[C@H](Cc1ccc(O)cc1)NC(=O)CCNC(=O)c1ccc2c(c1)C1(OC2=O)c2ccc(O)cc2Oc2cc(O)ccc21)C(=O)N[C@@H](CCCNC(=N)N)C(=O)N[C@@H](CCCNC(=N)N)C(=O)N[C@@H](CCC(N)=O)C(=O)N[C@@H](CCCNC(=N)N)C(=O)N[C@@H](CCCNC(=N)N)C(=O)N[C@@H](CCCNC(=N)N)C(=O)O", "values": [{"measurement": "Activity", "setting": "[2]", "value": "Non-Toxic"}]}, {"smiles": "CC(=O)NCCCC[C@H](NC(=O)[C@H](CCCNC(=N)N)NC(=O)CNC(=O)[C@H](Cc1ccc(O)cc1)NC(=O)CCNC(=O)c1ccc2c(c1)C1(OC2=O)c2ccc(O)cc2Oc2cc(O)ccc21)C(=O)N[C@@H](CCCCN)C(=O)N[C@@H](CCCNC(=N)N)C(=O)N[C@@H](CCCNC(=N)N)C(=O)N[C@@H](CCC(N)=O)C(=O)N[C@@H](CCCNC(=N)N)C(=O)N[C@@H](CCCNC(=N)N)C(=O)N[C@@H](CCCNC(=N)N)C(=O)O", "values": [{"measurement": "Activity", "setting": "[2]", "value": "Non-Toxic"}]}, {"smiles": "CNCCCC[C@H](NC(=O)[C@H](CCCNC(=N)N)NC(=O)CNC(=O)[C@H](Cc1ccc(O)cc1)NC(=O)CCNC(=O)c1ccc2c(c1)C1(OC2=O)c2ccc(O)cc2Oc2cc(O)ccc21)C(=O)N[C@@H](CCCCN)C(=O)N[C@@H](CCCNC(=N)N)C(=O)N[C@@H](CCCNC(=N)N)C(=O)N[C@@H](CCC(N)=O)C(=O)N[C@@H](CCCNC(=N)N)C(=O)N[C@@H](CCCNC(=N)N)C(=O)N[C@@H](CCCNC(=N)N)C(=O)O", "values": [{"measurement": "Drug uptake", "setting": "[1]", "value": "Active"}, {"measurement": "Activity", "setting": "[2]", "value": "Non-Toxic"}, {"measurement": "Drug uptake", "setting": "[3]", "value": "Active"}]}, {"smiles": "CC(=O)N[C@@H](Cc1ccc(O)cc1)C(=O)NCC(=O)N[C@@H](CCCNC(=N)N)C(=O)N[C@@H](CCCCN)C(=O)N[C@@H](CCCCN(C)C)C(=O)N[C@@H](CCCNC(=N)N)C(=O)N[C@@H](CCCNC(=N)N)C(=O)N[C@@H](CCC(N)=O)C(=O)N[C@@H](CCCNC(=N)N)C(=O)N[C@@H](CCCNC(=N)N)C(=O)N[C@@H](CCCNC(=N)N)C(N)=O", "values": [{"measurement": "Kd", "setting": "[4]", "value": 280, "unit": "nM"}]}, {"smiles": "CN(C)CCCC[C@H](NC(=O)[C@H](CCCCN)NC(=O)[C@H](CCCNC(=N)N)NC(=O)CNC(=O)[C@H](Cc1ccc(O)cc1)NC(=O)CCNC(=O)c1ccc2c(c1)C1(OC2=O)c2ccc(O)cc2Oc2cc(O)ccc21)C(=O)N[C@@H](CCCNC(=N)N)C(=O)N[C@@H](CCCNC(=N)N)C(=O)N[C@@H](CCC(N)=O)C(=O)N[C@@H](CCCNC(=N)N)C(=O)N[C@@H](CCCNC(=N)N)C(=O)N[C@@H](CCCNC(=N)N)C(=O)O", "values": [{"measurement": "Activity", "setting": "[2]", "value": "Non-Toxic"}, {"measurement": "Drug uptake", "setting": "[3]", "value": "Active"}]}, {"smiles": "CC(=O)NCCCC[C@H](NC(=O)[C@H](CCCCN)NC(=O)[C@H](CCCNC(=N)N)NC(=O)CNC(=O)[C@H](Cc1ccc(O)cc1)NC(C)=O)C(=O)N[C@@H](CCCNC(=N)N)C(=O)N[C@@H](CCCNC(=N)N)C(=O)N[C@@H](CCC(N)=O)C(=O)N[C@@H](CCCNC(=N)N)C(=O)N[C@@H](CCCNC(=N)N)C(=O)N[C@@H](CCCNC(=N)N)C(N)=O", "values": [{"measurement": "Kd", "setting": "[4]", "value": 371, "unit": "nM"}]}, {"smiles": "CNCCCC[C@H](NC(=O)[C@H](CCCCN)NC(=O)[C@H](CCCNC(=N)N)NC(=O)CNC(=O)[C@H](Cc1ccc(O)cc1)NC(C)=O)C(=O)N[C@@H](CCCNC(=N)N)C(=O)N[C@@H](CCCNC(=N)N)C(=O)N[C@@H](CCC(N)=O)C(=O)N[C@@H](CCCNC(=N)N)C(=O)N[C@@H](CCCNC(=N)N)C(=O)N[C@@H](CCCNC(=N)N)C(N)=O", "values": [{"measurement": "Kd", "setting": "[4]", "value": 410, "unit": "nM"}]}, {"smiles": "CNCCCC[C@H](NC(=O)[C@H](CCCNC(=N)N)NC(=O)CNC(=O)[C@H](Cc1ccc(O)cc1)NC(C)=O)C(=O)N[C@@H](CCCCN)C(=O)N[C@@H](CCCNC(=N)N)C(=O)N[C@@H](CCCNC(=N)N)C(=O)N[C@@H](CCC(N)=O)C(=O)N[C@@H](CCCNC(=N)N)C(=O)N[C@@H](CCCNC(=N)N)C(=O)N[C@@H](CCCNC(=N)N)C(N)=O", "values": [{"measurement": "Kd", "setting": "[4]", "value": 264, "unit": "nM"}]}, {"smiles": "CC(=O)N[C@@H](Cc1ccc(O)cc1)C(=O)NCC(=O)N[C@@H](CCCNC(=N)N)C(=O)N[C@@H](CCCCN)C(=O)N[C@@H](CCCC[N+](C)(C)C)C(=O)N[C@@H](CCCNC(=N)N)C(=O)N[C@@H](CCCNC(=N)N)C(=O)N[C@@H](CCC(N)=O)C(=O)N[C@@H](CCCNC(=N)N)C(=O)N[C@@H](CCCNC(=N)N)C(=O)N[C@@H](CCCNC(=N)N)C(N)=O", "values": [{"measurement": "Kd", "setting": "[4]", "value": 599, "unit": "nM"}]}]}
